31 compounds from ChEMBL document CHEMBL2390934, “Synthesis and evaluation of phenoxyoxazaphospholidine, phenoxyoxazaphosphinane, and benzodioxaphosphininamine sulfides and related compounds as potential anti-malarial agents” (Bioorg Med Chem Lett, 2013) can be followed below.

The source made the active and inactive calls. The calls are words filed in the database; no cut-off is given here. Some results are limits rather than exact numbers.

One test concerns Plasmodium falciparum. Description: Antimalarial activity against chloroquine-resistant Plasmodium falciparum K1/Thailand infected in O positive erythrocytes assessed as parasite lactate dehydrogenase activity after 72 hrs. The class given is functional, organism-based.
Conditions: not given
In the case of `CCOP(=S)(NCCCCNc1ccnc2cc(Cl)ccc12)Oc1ccc(C(F)(F)F)cc1` (configuration not stated), the result was Active.

In the next test the test system is Plasmodium falciparum. Description: Antimalarial activity against Plasmodium falciparum 3D7 infected in O positive erythrocytes assessed as parasite lactate dehydrogenase activity after 72 hrs. The class given is functional, organism-based. The note with it: 3D7, 72 h.
On to `CCOP(=O)(NC1CCCC1)Oc1ccc(C(F)(F)F)cn1` (configuration not stated), for which the IC50 was determined as 23 µM.
As for `Cc1ccc([N+](=O)[O-])cc1OP1(=S)NCCO1` (configuration not stated), the IC50 worked out at 24 µM.
Still for that read-out and setting: the result for `CCCNP1(=S)OCc2ccccc2O1` (configuration not stated) reads 95 µM.
Still for that read-out and setting: the result for `CC(C)CNP1(=S)OCc2cc([N+](=O)[O-])ccc2O1` (configuration not stated) reads 118 µM; that for `FC(F)(F)c1ccc(OP2(=S)NCCO2)cc1` (configuration not stated), 108 µM.
Same read-out and setting: the result for `CC1COP(=S)(Oc2ccc(C(F)(F)F)cc2)N1` (racemic) reads more than 128 µM; that for `CC(C)NP1(=S)OCc2cc([N+](=O)[O-])ccc2O1` (configuration not stated), 108 µM; that for `Cc1ccc(OP2(=S)NCCCO2)c([N+](=O)[O-])c1` (configuration not stated), more than 128 µM.
For the compound `CCOP(=O)(NC(C)C)Oc1ccc(C(F)(F)F)cn1` (configuration not stated), the IC50 was 25 µM.
On the same count and under the same terms, under `CCOP(=S)(NC1CCCC1)Oc1cccc2cccnc12` (configuration not stated) stands 25 µM.
Take `Cc1cc([N+](=O)[O-])ccc1OP1(=S)NCCCO1` (configuration not stated): the IC50 worked out at 128 µM.
In the case of `NCCCCNc1ccnc2cc(Cl)ccc12`, the half-maximal inhibitory concentration (IC50) stood at 0.64 µM.
Turning to `FC(F)(F)c1ccc(OP2(=S)NCCCO2)cc1` (configuration not stated), the IC50 was 62 µM.
The same measure, in the same setting: the result for `CCOP(=S)(NCCCCNc1ccnc2cc(Cl)ccc12)Oc1ccc(C(F)(F)F)cc1` (configuration not stated) reads 0.038 µM; that for `Cc1ccc(OP2(=S)NCCO2)c([N+](=O)[O-])c1` (configuration not stated), more than 128 µM.
Same read-out and setting: the result for `Cc1ccc([N+](=O)[O-])c(OP2(=S)NCCCO2)c1` (configuration not stated) reads more than 128 µM; that for `CCOP(=O)(NC(C)C)Oc1cc(C)c([N+](=O)[O-])cn1` (configuration not stated), 25 µM.
Still for that read-out and setting: the result for `Cc1ccc(OP2(=S)NC(C)CO2)c([N+](=O)[O-])c1` (mixture of isomers) reads 77 µM; that for `CCOP(=O)(NC(C)C)Oc1ccc2ccccc2c1` (configuration not stated), 87 µM.
Take `CC(C)NP1(=S)OCc2ccccc2O1` (configuration not stated): the IC50 is 62 µM.
On the same count and under the same terms, the result for `Cc1cc2c(c([N+](=O)[O-])c1)OP(=S)(NC(C)C)OC2` (configuration not stated) reads more than 128 µM; that for `CCOP(=S)(NC(C)C)Oc1ccc(C(F)(F)F)cn1` (configuration not stated), 29 µM; that for `CC(C)CNP1(=S)OCc2ccccc2O1` (configuration not stated), 58 µM.
Still for that read-out and setting: the result for `Cc1ccc([N+](=O)[O-])cc1OP1(=S)NCCCO1` (configuration not stated) reads 108 µM.
Still for that read-out and setting: the result for `Cc1cc([N+](=O)[O-])ccc1OP1(=S)NCCO1` (configuration not stated) reads 51 µM.
For the compound `CCOP(=S)(NC1CCCC1)Oc1ccc2ncccc2c1` (configuration not stated), the 50% inhibitory concentration (IC50) was 19 µM.
For the compound `CCOP(=O)(NC(C)C)Oc1cc(C)ccn1` (configuration not stated), the half-inhibitory concentration (IC50) was determined as 128 µM.
The same measure, in the same setting: the result for `CCOP(=O)(NC(C)C)Oc1cc(O)ccn1` (configuration not stated) reads 128 µM.
Still for that read-out and setting: the result for `CCOP(=O)(NC(C)C)Oc1ccc2ccccc2c1[N+](=O)[O-]` (configuration not stated) reads 98 µM; that for `FC(F)(F)c1ccc(OP2(=S)OCCS2)cc1` (configuration not stated), 64 µM; that for `CCOP(=O)(NC(C)C)Oc1nccc(C)c1[N+](=O)[O-]` (configuration not stated), 128 µM.

In general, IC50 refers to the concentration at which inhibition is half-maximal.
